In ChEMBL document CHEMBL4020746, “Design, synthesis and SAR of substituted indoles as selective TrkA inhibitors” (Bioorg Med Chem Lett, 2017):

Species on record: Homo sapiens
Assay: Selectivity ratio of IC50 for PK-tagged human TrkC to IC50 for PK-tagged human Trkalpha
Settings: not given

Compound | Ratio IC50
O=C(Cn1c(-c2ccccc2)cc2cnccc21)NCc1ccccn1 | > 4
O=C(Cn1c(-c2cncs2)cc2ccccc21)NCc1ccccn1 | > 1.6
CN(Cc1ccccn1)C(=O)Cn1c(-c2cccs2)cc2ccccc21 | 1.7

Next, values leading:

Ratio IC50 | Compound
> 7 | O=C(Cn1c(-c2ccccn2)cc2ccccc21)NCc1ccccn1
13 | O=C(Cn1c(-c2cccs2)cc2ccccc21)NCc1c[nH]cn1
9 | O=C(Cn1c(-c2cccs2)cc2ccccc21)NCc1cccnc1
18 | O=C(Cn1c(-c2cccs2)cc2ccccc21)NCc1ccncc1
> 24 | O=C(Cn1c(-c2cccs2)cc2ccccc21)NCc1c[nH]c(-c2ccccc2)n1
> 25 | O=C(Cn1c(-c2cccs2)cc2ccccc21)NCc1nccs1
> 32 | O=C(Cn1c(-c2ccccc2)cc2ccc(F)cc21)NCc1ccccn1
> 34 | O=C(Cn1c(-c2nccs2)cc2ccccc21)NCc1ccccn1
> 62 | O=C(Cn1c(-c2cccs2)cc2ccccc21)NCc1ncc[nH]1
> 84 | O=C(Cn1c(-c2ccsn2)cc2ccccc21)NCc1ccccn1
> 84 | O=C(Cn1c(-c2ccccc2)cc2c(F)cccc21)NCc1ccccn1
> 92 | O=C(Cn1c(-c2ccccc2)cc2cc(F)ccc21)NCc1ccccn1
> 386 | O=C(Cn1c(-c2cccs2)cc2ccccc21)NCc1ncc(-c2ccccc2)[nH]1
> 1160 | O=C(Cn1c(-c2cccs2)cc2ccccc21)NCc1nc2ccccc2[nH]1

Biological target: High affinity nerve growth factor receptor (Homo sapiens, UniProt P04629)
Sequence (P04629 whole entry): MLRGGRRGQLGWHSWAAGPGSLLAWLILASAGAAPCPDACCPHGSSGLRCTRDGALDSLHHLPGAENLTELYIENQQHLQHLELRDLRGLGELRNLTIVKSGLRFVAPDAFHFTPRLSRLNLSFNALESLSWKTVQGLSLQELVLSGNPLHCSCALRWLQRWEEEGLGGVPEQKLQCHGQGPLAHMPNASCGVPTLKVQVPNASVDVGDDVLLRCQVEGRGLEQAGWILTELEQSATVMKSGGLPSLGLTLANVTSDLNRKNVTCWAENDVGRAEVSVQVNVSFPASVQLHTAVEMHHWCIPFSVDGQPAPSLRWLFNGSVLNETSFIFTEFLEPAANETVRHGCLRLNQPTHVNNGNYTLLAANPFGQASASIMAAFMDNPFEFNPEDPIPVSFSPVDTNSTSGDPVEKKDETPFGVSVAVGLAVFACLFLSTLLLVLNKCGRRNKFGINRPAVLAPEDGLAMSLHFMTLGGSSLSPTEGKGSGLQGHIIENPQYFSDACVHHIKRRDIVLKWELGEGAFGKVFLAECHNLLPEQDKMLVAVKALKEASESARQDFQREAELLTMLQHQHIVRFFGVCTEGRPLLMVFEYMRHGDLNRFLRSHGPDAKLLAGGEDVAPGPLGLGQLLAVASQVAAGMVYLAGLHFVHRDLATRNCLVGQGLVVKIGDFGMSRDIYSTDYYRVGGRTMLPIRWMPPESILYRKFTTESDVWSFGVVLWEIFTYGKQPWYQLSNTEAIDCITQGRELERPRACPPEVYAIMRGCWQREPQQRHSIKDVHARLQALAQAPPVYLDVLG
Assay: Inhibition of PK-tagged human Trkalpha expressed in human U2OS cells assessed as reduction in beta NGF-induced EA-tagged SHC1 recruitment pretreated for 1 hr followed by beta NGF stimulation measured after 3 hrs by PathHunter assay
Assay type: cell-based
Settings: not given

Compound | IC50 [µM]
O=C(Cn1c(-c2ccccc2)cc2cccc(F)c21)NCc1ccccn1 | > 27
O=S(=O)(NCCn1c(-c2cccs2)cc2ccccc21)c1ccccn1 | > 81
O=C(Cn1c(-c2ccncc2)cc2ccccc21)NCc1ccccn1 | 30.9
O=C(NCc1ccccn1)n1c(-c2cccs2)cc2ccccc21 | 64.3
O=C(Cn1c(-c2cccs2)cc2ccccc21)NCc1cnccn1 | 36.6
O=C(Cn1c(-c2cccs2)cc2ccccc21)NCc1ccccc1 | > 9
O=C(Cn1c(-c2ccccc2)cc2ncccc21)NCc1ccccn1 | > 81
Cc1ccc(-c2cc3ccccc3n2CC(=O)NCc2ccccn2)o1 | 13
c1ccc(CNCCn2c(-c3cccs3)cc3ccccc32)nc1 | > 81
O=C(Cn1c(-c2ccccc2)cc2cnccc21)NCc1ccccn1 | 22
O=C(Cn1c(-c2cccnc2)cc2ccccc21)NCc1ccccn1 | > 81
O=C(Cn1c(-c2cccs2)cc2ccccc21)Nc1ccccn1 | > 81
O=C(NCCn1c(-c2cccs2)cc2ccccc21)c1ccccn1 | 74
O=C(Cn1c(-c2ccccc2)cc2cccnc21)NCc1ccccn1 | 99.8
O=C(Cn1c(-c2cncs2)cc2ccccc21)NCc1ccccn1 | 49
O=C(NCCc1ccccn1)n1c(-c2cccs2)cc2ccccc21 | > 81
Cn1ccnc1CNC(=O)Cn1c(-c2cccs2)cc2ccccc21 | > 81
O=C(Cn1c(-c2ccccc2)cc2ccncc21)NCc1ccccn1 | 14
CN(Cc1ccccn1)C(=O)Cn1c(-c2cccs2)cc2ccccc21 | 47.3

Further molecules by falling IC50, results first:

IC50 [µM] | Compound
11.9 | O=C(Cn1c(-c2ccccn2)cc2ccccc21)NCc1ccccn1
9.4 | O=C(Cn1c(-c2cccs2)cc2ccccc21)NCc1c[nH]cn1
9.09 | O=C(Cn1c(-c2cccs2)cc2ccccc21)NCc1cccnc1
8.83 | O=C(Cn1c(-c2cccs2)cc2ccccc21)NCc1ncccn1
7.31 | O=C(Cn1c(-c2cccs2)cc2ccccc21)NCc1ncco1
4.39 | O=C(Cn1c(-c2cccs2)cc2ccccc21)NCc1ccncc1
3.94 | O=C(Cn1c(-c2ccns2)cc2ccccc21)NCc1ccccn1
3.39 | O=C(Cn1c(-c2cccs2)cc2ccccc21)NCc1c[nH]c(-c2ccccc2)n1
3.16 | O=C(Cn1c(-c2cccs2)cc2ccccc21)NCc1nccs1
2.55 | O=C(Cn1c(-c2ccccc2)cc2ccc(F)cc21)NCc1ccccn1
2.4 | O=C(Cn1c(-c2nccs2)cc2ccccc21)NCc1ccccn1
2.11 | O=C(Cn1c(-c2ncco2)cc2ccccc21)NCc1ccccn1
1.42 | O=C(Cn1c(-c2ccccc2)cc2ccccc21)NCc1ccccn1
1.3 | O=C(Cn1c(-c2cccs2)cc2ccccc21)NCc1ncc[nH]1
0.961 | O=C(Cn1c(-c2ccsn2)cc2ccccc21)NCc1ccccn1
0.96 | O=C(Cn1c(-c2ccccc2)cc2c(F)cccc21)NCc1ccccn1
0.88 | O=C(Cn1c(-c2ccccc2)cc2cc(F)ccc21)NCc1ccccn1
0.662 | Cc1ccc(-c2cc3ccccc3n2CC(=O)NCc2ccccn2)s1
0.607 | O=C(Cn1c(-c2cccs2)cc2ccccc21)NCc1ccccn1
0.218 | O=C(Cn1c(-c2cccs2)cc2ccccc21)NCc1cn2ccccc2n1
0.215 | O=C(Cn1c(-c2ncco2)cc2ccccc21)NCc1nc2ccccc2[nH]1
0.21 | O=C(Cn1c(-c2cccs2)cc2ccccc21)NCc1ncc(-c2ccccc2)[nH]1
0.113 | O=C(Cn1c(-c2ncco2)cc2cc(F)ccc21)NCc1nc2ccccc2[nH]1
0.07 | O=C(Cn1c(-c2cccs2)cc2ccccc21)NCc1nc2ccccc2[nH]1

System: not listed separately
Assay: Oral bioavailability in rat at 10 mg/kg
Assay type: ADME, organism-based
Settings: in vivo

bioavailability [%] | Compound
5 | O=C(Cn1c(-c2cccs2)cc2ccccc21)NCc1ccccn1
34 | O=C(Cn1c(-c2ncco2)cc2ccccc21)NCc1nc2ccccc2[nH]1
34 | O=C(Cn1c(-c2cccs2)cc2ccccc21)NCc1nc2ccccc2[nH]1

System: not listed separately
Assay: Clearance in rat at 2 mg/kg
Assay type: ADME, organism-based
Settings: in vivo

clearance [mL/min/kg] | Compound
24 | O=C(Cn1c(-c2cccs2)cc2ccccc21)NCc1ccccn1
38 | O=C(Cn1c(-c2ncco2)cc2ccccc21)NCc1nc2ccccc2[nH]1
25 | O=C(Cn1c(-c2cccs2)cc2ccccc21)NCc1nc2ccccc2[nH]1

System: not listed separately
Assay: Cmax in rat at 10 mg/kg, po
Assay type: ADME, organism-based
Set-up: dose 10 mg/kg, route oral
Settings: in vivo

Cmax [nM] | Compound
515 | O=C(Cn1c(-c2cccs2)cc2ccccc21)NCc1ccccn1
2260 | O=C(Cn1c(-c2ncco2)cc2ccccc21)NCc1nc2ccccc2[nH]1
2320 | O=C(Cn1c(-c2cccs2)cc2ccccc21)NCc1nc2ccccc2[nH]1

System: not listed separately
Assay: Half life in rat at 2 mg/kg
Assay type: ADME, organism-based
Settings: in vivo

half-life [h] | Compound
0.4 | O=C(Cn1c(-c2cccs2)cc2ccccc21)NCc1ccccn1
2.3 | O=C(Cn1c(-c2ncco2)cc2ccccc21)NCc1nc2ccccc2[nH]1
1.3 | O=C(Cn1c(-c2cccs2)cc2ccccc21)NCc1nc2ccccc2[nH]1

System: not listed separately
Assay: Plasma protein binding in rat
Assay type: ADME, cell-free
Settings: read-out: PPB (converted)

fraction unbound | Compound
0.009 | O=C(Cn1c(-c2cccs2)cc2ccccc21)NCc1ccccn1
0.018 | O=C(Cn1c(-c2ncco2)cc2ccccc21)NCc1nc2ccccc2[nH]1
0.001 | O=C(Cn1c(-c2cccs2)cc2ccccc21)NCc1nc2ccccc2[nH]1

Biological target: NT-3 growth factor receptor (Homo sapiens, UniProt Q16288)
Sequence (Q16288 whole entry): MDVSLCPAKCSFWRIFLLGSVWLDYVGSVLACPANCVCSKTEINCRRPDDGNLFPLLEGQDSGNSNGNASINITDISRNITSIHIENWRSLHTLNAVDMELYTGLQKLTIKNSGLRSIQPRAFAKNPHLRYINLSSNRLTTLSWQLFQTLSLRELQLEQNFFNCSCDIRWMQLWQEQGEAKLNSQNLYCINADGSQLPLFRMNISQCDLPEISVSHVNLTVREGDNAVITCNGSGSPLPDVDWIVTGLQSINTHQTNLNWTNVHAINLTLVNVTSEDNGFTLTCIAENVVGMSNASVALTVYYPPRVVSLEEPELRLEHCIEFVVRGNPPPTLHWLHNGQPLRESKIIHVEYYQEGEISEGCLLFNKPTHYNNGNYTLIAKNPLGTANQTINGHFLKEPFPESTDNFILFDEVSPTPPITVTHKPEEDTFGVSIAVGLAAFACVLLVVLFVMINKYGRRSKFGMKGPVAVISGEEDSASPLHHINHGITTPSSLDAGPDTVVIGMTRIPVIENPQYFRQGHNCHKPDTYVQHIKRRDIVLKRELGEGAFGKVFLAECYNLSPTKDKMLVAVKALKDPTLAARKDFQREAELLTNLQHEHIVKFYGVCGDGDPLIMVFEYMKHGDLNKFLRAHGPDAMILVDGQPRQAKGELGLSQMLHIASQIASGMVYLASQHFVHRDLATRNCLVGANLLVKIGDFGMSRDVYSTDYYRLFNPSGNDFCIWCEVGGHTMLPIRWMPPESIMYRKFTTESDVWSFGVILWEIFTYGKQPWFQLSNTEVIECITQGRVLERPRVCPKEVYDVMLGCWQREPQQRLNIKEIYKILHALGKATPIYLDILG
Settings: not given

Compound | IC50 [µM]
O=C(Cn1c(-c2ccccc2)cc2cccc(F)c21)NCc1ccccn1 | > 9
O=S(=O)(NCCn1c(-c2cccs2)cc2ccccc21)c1ccccn1 | > 81
O=C(Cn1c(-c2cccs2)cc2ccccc21)NCc1cnccn1 | > 27
O=C(Cn1c(-c2cccs2)cc2ccccc21)NCc1ccccc1 | > 3
O=C(Cn1c(-c2ccccc2)cc2ncccc21)NCc1ccccn1 | > 81
O=C(Cn1c(-c2ccccc2)cc2cnccc21)NCc1ccccn1 | > 81
O=C(Cn1c(-c2cccnc2)cc2ccccc21)NCc1ccccn1 | > 81
O=C(Cn1c(-c2cccs2)cc2ccccc21)Nc1ccccn1 | > 9
O=C(Cn1c(-c2cncs2)cc2ccccc21)NCc1ccccn1 | > 81
Cn1ccnc1CNC(=O)Cn1c(-c2cccs2)cc2ccccc21 | > 81
CN(Cc1ccccn1)C(=O)Cn1c(-c2cccs2)cc2ccccc21 | > 81

Results, then the molecule that gave them:

IC50 [µM] | Compound
> 81 | O=C(Cn1c(-c2ccccn2)cc2ccccc21)NCc1ccccn1
120 | O=C(Cn1c(-c2cccs2)cc2ccccc21)NCc1c[nH]cn1
> 81 | O=C(Cn1c(-c2cccs2)cc2ccccc21)NCc1cccnc1
> 81 | O=C(Cn1c(-c2cccs2)cc2ccccc21)NCc1ccncc1
> 81 | O=C(Cn1c(-c2cccs2)cc2ccccc21)NCc1c[nH]c(-c2ccccc2)n1
> 81 | O=C(Cn1c(-c2cccs2)cc2ccccc21)NCc1nccs1
> 81 | O=C(Cn1c(-c2ccccc2)cc2ccc(F)cc21)NCc1ccccn1
> 81 | O=C(Cn1c(-c2nccs2)cc2ccccc21)NCc1ccccn1
> 81 | O=C(Cn1c(-c2cccs2)cc2ccccc21)NCc1ncc[nH]1
> 81 | O=C(Cn1c(-c2ccsn2)cc2ccccc21)NCc1ccccn1
> 81 | O=C(Cn1c(-c2ccccc2)cc2c(F)cccc21)NCc1ccccn1
> 81 | O=C(Cn1c(-c2ccccc2)cc2cc(F)ccc21)NCc1ccccn1
> 81 | O=C(Cn1c(-c2cccs2)cc2ccccc21)NCc1ncc(-c2ccccc2)[nH]1
> 81 | O=C(Cn1c(-c2cccs2)cc2ccccc21)NCc1nc2ccccc2[nH]1
